What was measured:
[1] = tested on: endogenous ATPase of L929 cell lysate; test: ATPase inhibition at 22° C. and 37° C. by buffered detergent solution with 1% DTAB; assay type: biochemical; conditions: up to five hours
Experimental: Cell lysate was prepared as described in Example 1. The ability of 1% DTAB to inhibit endogenous ATPase (i.e., ATPase present in a sample) was measured in a complete reagent composition over time at both 22° C. (room temperature) and 37° C. Three cell lysate samples were prepared. Sample 1 contained 4.0 ml L929 cell lysate plus 4.0 ml 25 mM Hepes, pH 7.5. Sample 2 contained 4.0 ml L929 cell lysate plus 4.0 ml buffered detergent solution (40 mM Citrate (pH 6.0), 110 mM MES (pH 6.0), 450 mM KPO4 (pH 6.0), 2.0 mM EDTA, 0.2% Mazu DF-204 (PPG Industries), 2.0 mM NaF, 1.0% DTAB and 2% THESIT—final pH of the buffered detergent solution adjusted to 6.0). Sample 3 contained 4.0 ml DMEM/F12 media (no serum) containing 0.1 μM ATP plus 4.0 ml 25 mM Hepes (pH 7.5). The samples were divided in half; half was incubated at 22° C., half was incubated at 37° C. After 10 minutes of incubation in their respective water baths to allow the solution at 37° C. to reach that temperature (this point is referred to as time=10 min.), 100 μl of each sample was transferred independently to a well of a 96-well luminometer plate in quadruplicate. To each 100 μl sample was added 20 μl of a solution containing luciferin (12.5 mM)/luciferase (200 μg/ml LucPpe2m146)/MgSO4 (50 mM) solution. The resulting relative light units were measured on a Dynex luminometer using 0.5 second reads. […]

LucPpe2m146 = test: Duration of luminescence (signal stability) and effects of media and sera, DTAB, ± pyrophosphate; assay type: biochemical, Photuris pennsylvanica
Experimental: In some embodiments, the compositions of the invention were added to intact cells to lyse them, and then ATP detected. In other embodiments, conditioned culture media were themselves assayed for ATP. However, the various components of media, such as buffers, sugars, amino acids, pH indicators, salts, etc., as well as the various factors found in serum (equine, bovine, etc.) may inhibit luciferase activity.
The luciferase-luciferin reaction was initiated by combining 100 μl of the reagent composition composition with 100 μl cell media with serum, varying final concentrations of DTAB (as indicated below in Table Q) and 1.0 μM ATP was added to each reaction plus or minus 10 μM sodium pyrophosphate in wells of a 96-well microtiter luminometer plate; each experimental condition was prepared in triplicate. At various times after initiating the reaction, rlu values were recorded using an Orion microplate luminometer (Berthold Detection Systems; Pforzheim, Germany).

[2] = Precipitation of detergent in reagent composition samples; assay type: physicochemical

Which “loss of ATP (inhibition of ATPase endogenous to the sample)” value ([1]; 22° C.) does the source give for `CCCCCCCCCCCC[N+](C)(C)C.[Br-]` [DTAB, dodecyltrimethylammonium bromide] here?
Its value is “no loss of ATP”.

And the “loss of ATP (inhibition of ATPase endogenous to the sample)” value ([1]; 37° C.)?
The value was “minimal loss”.

And the “Average Relative Light Units” value (LucPpe2m146; 0.50% DTAB, DMEM + 10% FBS + ATP, 0 min)?
The value was 204771 relative light units.

What about the “Average Relative Light Units” value (LucPpe2m146; 0.50% DTAB, DMEM + 10% FBS + ATP, 10 min) of the same compound?
The value was 223493 relative light units.

What about the “Average Relative Light Units” value (LucPpe2m146; 0.50% DTAB, DMEM + 10% FBS + ATP, 30 min) of the same compound?
Its value is 187757 relative light units.

And the “Average Relative Light Units” value (LucPpe2m146; 0.50% DTAB, DMEM + 10% FBS + ATP, 65 min)?
The value was 146766 relative light units.

What about the “Average Relative Light Units” value (LucPpe2m146; 0.50% DTAB, DMEM + 10% FBS + ATP, 120 min) of the same compound?
Its value is 104150 relative light units.

And the “Average Relative Light Units” value (LucPpe2m146; 0.50% DTAB, DMEM + 10% FBS + ATP, 180 min)?
The value was 72609 relative light units.

And the “Average Relative Light Units” value (LucPpe2m146; 0.50% DTAB, DMEM + 10% FBS + ATP, 325 min)?
The value was 32307 relative light units.

What about the “Average Relative Light Units” value (LucPpe2m146; 0.50% DTAB, F12/DME + 10% FBS + ATP, 0 min) of the same compound?
The value was 13467 relative light units.

What about the “Average Relative Light Units” value (LucPpe2m146; 0.50% DTAB, F12/DME + 10% FBS + ATP, 10 min) of the same compound?
The value was 13311 relative light units.

And the “Average Relative Light Units” value (LucPpe2m146; 0.50% DTAB, F12/DME + 10% FBS + ATP, 30 min)?
The value was 11348 relative light units.

What about the “Average Relative Light Units” value (LucPpe2m146; 0.50% DTAB, F12/DME + 10% FBS + ATP, 65 min) of the same compound?
The value was 9953 relative light units.

And the “Average Relative Light Units” value (LucPpe2m146; 0.50% DTAB, F12/DME + 10% FBS + ATP, 120 min)?
The value was 8127 relative light units.

What about the “Average Relative Light Units” value (LucPpe2m146; 0.50% DTAB, F12/DME + 10% FBS + ATP, 180 min) of the same compound?
The value was 6538 relative light units.

What about the “Average Relative Light Units” value (LucPpe2m146; 0.50% DTAB, F12/DME + 10% FBS + ATP, 325 min) of the same compound?
The value was 3793 relative light units.

And the “Average Relative Light Units” value (LucPpe2m146; 0.50% DTAB, F12/DME + 10% HS + ATP, 0 min)?
The value was 88405 relative light units.

What about the “Average Relative Light Units” value (LucPpe2m146; 0.50% DTAB, F12/DME + 10% HS + ATP, 10 min) of the same compound?
The value was 82645 relative light units.

What about the “Average Relative Light Units” value (LucPpe2m146; 0.50% DTAB, F12/DME + 10% HS + ATP, 30 min) of the same compound?
Its value is 70746 relative light units.

What about the “Average Relative Light Units” value (LucPpe2m146; 0.50% DTAB, F12/DME + 10% HS + ATP, 65 min) of the same compound?
Its value is 58749 relative light units.

And the “Average Relative Light Units” value (LucPpe2m146; 0.50% DTAB, F12/DME + 10% HS + ATP, 120 min)?
Its value is 44677 relative light units.

And the “Average Relative Light Units” value (LucPpe2m146; 0.50% DTAB, F12/DME + 10% HS + ATP, 180 min)?
Its value is 33353 relative light units.

What about the “Average Relative Light Units” value (LucPpe2m146; 0.50% DTAB, F12/DME + 10% HS + ATP, 325 min) of the same compound?
The value was 17414 relative light units.

What about the “Average Relative Light Units” value (LucPpe2m146; 0.50% DTAB, RPMI + 10% FBS + ATP, 0 min) of the same compound?
Its value is 44179 relative light units.

And the “Average Relative Light Units” value (LucPpe2m146; 0.50% DTAB, RPMI + 10% FBS + ATP, 10 min)?
The value was 43664 relative light units.

And the “Average Relative Light Units” value (LucPpe2m146; 0.50% DTAB, RPMI + 10% FBS + ATP, 30 min)?
The value was 35909 relative light units.

And the “Average Relative Light Units” value (LucPpe2m146; 0.50% DTAB, RPMI + 10% FBS + ATP, 65 min)?
Its value is 26501 relative light units.

And the “Average Relative Light Units” value (LucPpe2m146; 0.50% DTAB, RPMI + 10% FBS + ATP, 120 min)?
The value was 16951 relative light units.

What about the “Average Relative Light Units” value (LucPpe2m146; 0.50% DTAB, RPMI + 10% FBS + ATP, 180 min) of the same compound?
Its value is 10153 relative light units.

And the “Average Relative Light Units” value (LucPpe2m146; 0.50% DTAB, RPMI + 10% FBS + ATP, 325 min)?
The value was 3268 relative light units.

What about the “Average Relative Light Units” value (LucPpe2m146; 0.55% DTAB, DMEM + 10% FBS + ATP, 0 min) of the same compound?
Its value is 52107 relative light units.

And the “Average Relative Light Units” value (LucPpe2m146; 0.55% DTAB, DMEM + 10% FBS + ATP, 10 min)?
Its value is 59799 relative light units.

And the “Average Relative Light Units” value (LucPpe2m146; 0.55% DTAB, DMEM + 10% FBS + ATP, 30 min)?
The value was 51285 relative light units.

What about the “Average Relative Light Units” value (LucPpe2m146; 0.55% DTAB, DMEM + 10% FBS + ATP, 65 min) of the same compound?
The value was 42155 relative light units.

What about the “Average Relative Light Units” value (LucPpe2m146; 0.55% DTAB, DMEM + 10% FBS + ATP, 120 min) of the same compound?
The value was 32891 relative light units.

And the “Average Relative Light Units” value (LucPpe2m146; 0.55% DTAB, DMEM + 10% FBS + ATP, 180 min)?
The value was 24137 relative light units.

And the “Average Relative Light Units” value (LucPpe2m146; 0.55% DTAB, DMEM + 10% FBS + ATP, 325 min)?
The value was 12031 relative light units.

And the “Average Relative Light Units” value (LucPpe2m146; 0.55% DTAB, F12/DME + 10% FBS + ATP, 0 min)?
Its value is 6847 relative light units.

And the “Average Relative Light Units” value (LucPpe2m146; 0.55% DTAB, F12/DME + 10% FBS + ATP, 10 min)?
The value was 6952 relative light units.

And the “Average Relative Light Units” value (LucPpe2m146; 0.55% DTAB, F12/DME + 10% FBS + ATP, 30 min)?
Its value is 6013 relative light units.

And the “Average Relative Light Units” value (LucPpe2m146; 0.55% DTAB, F12/DME + 10% FBS + ATP, 65 min)?
Its value is 5581 relative light units.

And the “Average Relative Light Units” value (LucPpe2m146; 0.55% DTAB, F12/DME + 10% FBS + ATP, 120 min)?
The value was 4891 relative light units.

And the “Average Relative Light Units” value (LucPpe2m146; 0.55% DTAB, F12/DME + 10% FBS + ATP, 180 min)?
The value was 4329 relative light units.

What about the “Average Relative Light Units” value (LucPpe2m146; 0.55% DTAB, F12/DME + 10% FBS + ATP, 325 min) of the same compound?
The value was 3207 relative light units.

And the “Average Relative Light Units” value (LucPpe2m146; 0.55% DTAB, F12/DME + 10% HS + ATP, 0 min)?
Its value is 36615 relative light units.

What about the “Average Relative Light Units” value (LucPpe2m146; 0.55% DTAB, F12/DME + 10% HS + ATP, 10 min) of the same compound?
The value was 36669 relative light units.

What about the “Average Relative Light Units” value (LucPpe2m146; 0.55% DTAB, F12/DME + 10% HS + ATP, 30 min) of the same compound?
The value was 31348 relative light units.

And the “Average Relative Light Units” value (LucPpe2m146; 0.55% DTAB, F12/DME + 10% HS + ATP, 65 min)?
The value was 27979 relative light units.

And the “Average Relative Light Units” value (LucPpe2m146; 0.55% DTAB, F12/DME + 10% HS + ATP, 120 min)?
The value was 23778 relative light units.

What about the “Average Relative Light Units” value (LucPpe2m146; 0.55% DTAB, F12/DME + 10% HS + ATP, 180 min) of the same compound?
Its value is 19955 relative light units.

And the “Average Relative Light Units” value (LucPpe2m146; 0.55% DTAB, F12/DME + 10% HS + ATP, 325 min)?
The value was 13539 relative light units.

And the “Average Relative Light Units” value (LucPpe2m146; 0.55% DTAB, RPMI + 10% FBS + ATP, 0 min)?
Its value is 21388 relative light units.

And the “Average Relative Light Units” value (LucPpe2m146; 0.55% DTAB, RPMI + 10% FBS + ATP, 10 min)?
Its value is 22863 relative light units.

And the “Average Relative Light Units” value (LucPpe2m146; 0.55% DTAB, RPMI + 10% FBS + ATP, 30 min)?
Its value is 19631 relative light units.

What about the “Average Relative Light Units” value (LucPpe2m146; 0.55% DTAB, RPMI + 10% FBS + ATP, 65 min) of the same compound?
Its value is 16848 relative light units.

What about the “Average Relative Light Units” value (LucPpe2m146; 0.55% DTAB, RPMI + 10% FBS + ATP, 120 min) of the same compound?
Its value is 12968 relative light units.

What about the “Average Relative Light Units” value (LucPpe2m146; 0.55% DTAB, RPMI + 10% FBS + ATP, 180 min) of the same compound?
Its value is 9661 relative light units.

And the “Average Relative Light Units” value (LucPpe2m146; 0.55% DTAB, RPMI + 10% FBS + ATP, 325 min)?
The value was 5080 relative light units.

For `C[C@H](CCC(=O)[O-])[C@H]1CC[C@H]2[C@@H]3CC[C@@H]4C[C@H](O)CC[C@]4(C)[C@H]3C[C@H](O)[C@]12C.[Na+]` [Deoxycholate, sodium deoxycholate], which “precipitation in the samples” value ([2]; 0.1% deoxycholate) is on record?
The value was “slight precipitation”.

And the “precipitation in the samples” value ([2]; 0.5% deoxycholate)?
The value was “substantial precipitation”.
